Test results: PMC6271529, “Studies on the Anticonvulsant Activity and Influence on GABA-ergic Neurotransmission of 1,2,4-Triazole-3-thione-Based Compounds” (Molecules, 2014)
Read-outs that look alike come from different tables or passages of the source.

Experiments:
[1] = test system: maximal electroshock-induced seizures; test: Maximal electroshock-induced seizure (MES) test in mice; assay type: in vivo, mouse; conditions: for responders at 300 mg/kg / ED50: Mus musculus, ip; for responders at 300 mg/kg: read-out: percent of animals protected against MES-induced seizures; for ED50: read-out: ED50 ± S.E. (MES test); for PI (TD50/ED50): protective index; for onset of action: significant protection as early as 15 min after parenteral administration; for anticonvulsant activity (in words): MES test
Protocol: Additionally, all efforts were made to minimize animal suffering and to use only the number of animals necessary to produce reliable scientific data.
In the initial stage of the study, groups of eight mice were supplied with the compounds (administered intraperitoneally) in a dose of 300 mg/kg and then exposed to electrical impulse at fixed intervals (15, 30, 60, 120 min).
Each mouse was used only once.
Fresh drug solutions were prepared on each day of experimentation and administered at 15, 30, 60 and 120 min. before the initiation of maximal electroconvulsions. Electroconvulsions were produced by a current (0.2 s stimulus duration; 500 V, 50 Hz, fixed current intensity of 25 mA) delivered via ear-clip electrodes by a Rodent Shocker generator (constant-current stimulator Type 221, Hugo Sachs Elektronik, Freiburg, Germany). The criterion for the occurrence of seizure activity was the tonic hind limb extension. The animals were administered with a constant dose of 300 mg/kg of each of the examined compounds and were subjected to MES-induced seizures. […] The animals were administered with different doses of the tested compounds so as to obtain a variable percentage of protection against maximal electroconvulsions, allowing the construction of dose-response relationship lines for each examined compound administered i.p. at various pretreatment times, according to Litchfield and Wilcoxon. Each ED50 value represents the dose of the studied compounds that is required to protect 50% of the animals tested against MES-induced seizures.

[2] = 300 mg/kg i.p., pretreatment time 15 min, mice
[3] = 300 mg/kg i.p., pretreatment time 30 min, mice
[4] = 300 mg/kg i.p., pretreatment time 60 min, mice
[5] = 300 mg/kg i.p., pretreatment time 120 min, mice
[6] = 0.25 h, 300 mg/kg i.p., pretreatment time 15 min, mice
[7] = 0.5 h, 300 mg/kg i.p., pretreatment time 30 min, mice
[8] = 1 h, 300 mg/kg i.p., pretreatment time 60 min, mice
[9] = 2 h, 300 mg/kg i.p., pretreatment time 120 min, mice
[10] = pretreatment time 120 min, mice
[11] = chimney TD50 / MES ED50, pretreatment time 15 min
[12] = chimney TD50 / MES ED50, pretreatment time 30 min

Structure (SMILES) | p/t, number of animals protected against MES-induced seizures / number tested [1, 2] | p/t, number of animals protected against MES-induced seizures / number tested [1, 3] | p/t, number of animals protected against MES-induced seizures / number tested [1, 4] | p/t, number of animals protected against MES-induced seizures / number tested [1, 5] | responders at 300 mg/kg [1, 6] [%] | responders at 300 mg/kg [1, 7] [%] | responders at 300 mg/kg [1, 8] [%] | responders at 300 mg/kg [1, 9] [%] | melting point [°C] | further results
Cc1ccccc1-n1c(-c2cccc(Cl)c2)n[nH]c1=S [Compound 8a, 5-(3-Chlorophenyl)-4-(2-methylphenyl)-2,4-dihydro-3H-1,2,4-triazole-3-thione] | 0/8 | 0/8 | 0/8 | 0/8 | 0 | 0 | 0 | 0 | 186 to 188 | 
Cc1cccc(-n2c(-c3cccc(Cl)c3)n[nH]c2=S)c1 [Compound 9a, 5-(3-Chlorophenyl)-4-(3-methylphenyl)-2,4-dihydro-3H-1,2,4-triazole-3-thione] | 0/8 | 0/8 | 0/8 | 1/8 | 0 | 0 | 0 | 12.5 | 200 to 201 | 
S=c1[nH]nc(-c2cccc(Cl)c2)n1-c1ccc(Cl)cc1 [Compound 4a, 4-(4-Chlorophenyl)-5-(3-chlorophenyl)-2,4-dihydro-3H-1,2,4-triazole-3-thione] | 8/8 | 8/8 | 7/8 | 7/8 | 100 | 100 | 87.5 | 87.5 |  | ED50 ([1]; pretreatment time 15 min, mice): 90.1 ± 15.7 mg/kg; ED50 ([1]; pretreatment time 30 min, mice): 135 ± 19.8 mg/kg; ED50 ([1]; pretreatment time 60 min, mice): 171 ± 21.4 mg/kg; ED50 [1, 10]: 184 ± 28 mg/kg; PI (TD50/ED50) [1, 11]: 3.9; PI (TD50/ED50) [1, 12]: 2.7; PI (TD50/ED50) ([1]; chimney TD50 / MES ED50, pretreatment time 60 min): 2.1; PI (TD50/ED50) ([1]; chimney TD50 / MES ED50, pretreatment time 120 min): 2.0; onset of action ([1]; MES, mice): quick onset of action
S=c1n(CN2CCOCC2)nc(-c2cccc(Cl)c2)n1-c1ccc(Br)cc1 [Compound 19a, 4-(4-Bromophenyl)-5-(3-chlorophenyl)-2-(morpholin-4-ylmethyl)-2,4-dihydro-3H-1,2,4-triazole-3-thione] | 0/8 | 0/8 | 0/8 | 0/8 | 0 | 0 | 0 | 0 |  | 
CCN(CC)c1ccc(-n2c(-c3ccc(Cl)cc3)n[nH]c2=S)cc1 [Compound 18a, 5-(4-Chlorophenyl)-4-[4-(diethylamino)phenyl]-2,4-dihydro-3H-1,2,4-triazole-3-thione] | 0/8 | 0/8 | 1/8 | 0/8 | 0 | 0 | 12.5 | 0 | 264 to 266 | 
Fc1ccc(N2CCN(Cn3nc(-c4cccc(Cl)c4)n(-c4ccc(Br)cc4)c3=S)CC2)cc1 [Compound 21a, 4-(4-Bromophenyl)-5-(3-chlorophenyl)-2-{[4-(4-fluorophenyl)piperazin-1-yl]methyl}-2,4-dihydro-3H-1,2,4-triazole-3-thione] | 0/8 | 0/8 | 0/8 | 0/8 | 0 | 0 | 0 | 0 |  | 
S=c1n(CN2CCN(c3ccccc3)CC2)nc(-c2cccc(Cl)c2)n1-c1ccc(Br)cc1 [Compound 20a, 4-(4-Bromophenyl)-5-(3-chlorophenyl)-2-[(4-phenylpiperazin-1-yl)methyl]-2,4-dihydro-3H-1,2,4-triazole-3-thione] | 0/8 | 0/8 | 0/8 | 0/8 | 0 | 0 | 0 | 0 |  | 
Fc1ccc(N2CCN(Cn3nc(-c4ccc(Cl)cc4)n(-c4ccc(Br)cc4)c3=S)CC2)cc1 [Compound 30a, 4-(4-Bromophenyl)-5-(4-chlorophenyl)-2-{[4-(4-fluorophenyl)piperazin-1-yl]methyl}-2,4-dihydro-3H-1,2,4-triazole-3-thione] | 0/8 | 0/8 | 0/8 | 0/8 | 0 | 0 | 0 | 0 | 156 to 158 | 
S=c1n(CN2CCOCC2)nc(-c2ccc(Cl)cc2)n1-c1ccccc1Br [Compound 25a, 4-(2-Bromophenyl)-5-(4-chlorophenyl)-2-(morpholin-4-ylmethyl)-2,4-dihydro-3H-1,2,4-triazole-3-thione] | 0/8 | 0/8 | 0/8 | 0/8 | 0 | 0 | 0 | 0 | 180 to 181 | 
S=c1n(CN2CCOCC2)nc(-c2ccc(Cl)cc2)n1-c1ccc(Br)cc1 [Compound 28a, 4-(4-Bromophenyl)-5-(4-chlorophenyl)-2-(morpholin-4-ylmethyl)-2,4-dihydro-3H-1,2,4-triazole-3-thione] | 0/8 | 0/8 | 0/8 | 0/8 | 0 | 0 | 0 | 0 |  | 
Fc1ccc(-n2c(-c3cccc(Cl)c3)n[nH]c2=S)cc1 [Compound 3a, 5-(3-Chlorophenyl)-4-(4-fluorophenyl)-2,4-dihydro-3H-1,2,4-triazole-3-thione] |  |  |  |  |  |  |  |  |  | acute adverse effects at the screening dose ([1]; 300 mg/kg i.p., mice, protective effect in MES could not be established): acute adverse effects; anticonvulsant activity (in words) ([1]; mice): most potent activity; ED50 ([1]; pretreatment time 15 min, mice): 35.2 ± 5.3 mg/kg; ED50 ([1]; pretreatment time 30 min, mice): 93.6 ± 9.4 mg/kg; ED50 ([1]; pretreatment time 60 min, mice): > 200 mg/kg; ED50 [1, 10]: > 200 mg/kg; time to peak of the anticonvulsant action ([1]; after i.p. administration, MES, mice): 15 min; anticonvulsant activity at decreased doses ([1]; doses lowered to those not inducing neurotoxic effects, MES, mice): retained its anticonvulsant activity; anticonvulsant activity relative to valproate ([1]; from ED50 values, MES): approximately five and a half times higher than that of valproate; PI (TD50/ED50) [1, 11]: 3.9; PI (TD50/ED50) [1, 12]: 1.6; onset of action ([1]; MES, mice): quick onset of action
S=c1[nH]nc(-c2cccc(Cl)c2)n1-c1ccc(I)cc1 [Compound 7a, 5-(3-Chlorophenyl)-4-(4-iodophenyl)-2,4-dihydro-3H-1,2,4-triazole-3-thione] | 0/8 | 0/8 | 0/8 | 0/8 | 0 | 0 | 0 | 0 |  | anticonvulsant activity (in words) ([1]; mice): inactive
